Laboratory results: ChEMBL document CHEMBL1201862, “PubChem BioAssay data set” (2004)
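The compound was tested at five concentrations on cells cultured in 96-well plates, with a 48-hour exposure period. GI50 marks 50% less growth.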 Activity calls are given as the source filed them. Rule as the data show it: active = GI50 up to about 1.1 µM and inactive = higher.

Assays:
Experiment in all cases: inhibition of tumour cell growth, NCI panel, 48 h
MCF7 = tested on: MCF7
MDA-MB-435 = tested on: MDA-MB-435
NCI/ADR-RES = tested on: NCI/ADR-RES
DU-145 = tested on: DU-145
A498 = tested on: A498
NCI-H226 = tested on: NCI-H226
A549 = tested on: A549
SF-295 = tested on: SF-295
SR = tested on: SR
COLO 205 = tested on: COLO 205
OVCAR-5 = tested on: OVCAR-5
PC-3 = tested on: PC-3
HCT-116 = tested on: HCT-116
UACC-62 = tested on: UACC-62
HT-29 = tested on: HT-29
CAKI-1 = tested on: CAKI-1
SNB-19 = tested on: SNB-19
HCC 2998 = tested on: HCC 2998
CCRF-CEM = tested on: CCRF-CEM
SNB-75 = tested on: SNB-75

Row | SMILES | GI50 (MCF7) | GI50 (MDA-MB-435) | GI50 (NCI/ADR-RES) | GI50 (DU-145) | GI50 (A498) | GI50 (NCI-H226) | GI50 (A549) | GI50 (SF-295) | GI50 (SR) | GI50 (COLO 205) | GI50 (OVCAR-5) | GI50 (PC-3) | GI50 (HCT-116) | GI50 (UACC-62) | GI50 (HT-29) | GI50 (CAKI-1) | GI50 (SNB-19) | GI50 (HCC 2998) | GI50 (CCRF-CEM) | GI50 (SNB-75)
1 | COc1cc2c3cc1Oc1cc(ccc1O)C[C@@H]1c4c(cc(OC)c(O)c4Oc4ccc(cc4)C[C@@H]3N(C)CC2)CC[N+]1(C)C | 22.4 µM (inactive) | 43.7 µM (inactive) | > 100 µM (inactive) | 42 µM (inactive) | 81.7 µM (inactive) | > 100 µM (inactive) | > 100 µM (inactive) | 19.9 µM (inactive) | 24.8 µM (inactive) | 77.1 µM (inactive) | > 100 µM (inactive) | 21.9 µM (inactive) | 48.4 µM (inactive) | > 100 µM (inactive) | 46.5 µM (inactive) | > 100 µM (inactive) | > 100 µM (inactive) |  |  | 
2 | COc1ccc(-c2cc(-c3ccccc3)nc(N)c2-c2ccc3ccccc3c2)cc1 | 1.83 µM (inactive) | 2.11 µM (inactive) | 1.98 µM (inactive) |  | 2.04 µM (inactive) | 1.5 µM (inactive) | 2.21 µM (inactive) | 1.87 µM (inactive) | 2.15 µM (inactive) | 1.68 µM (inactive) | 1.77 µM (inactive) | 2.22 µM (inactive) | 1.24 µM (inactive) | 1.58 µM (inactive) | 1 µM (active) | 3.46 µM (inactive) | 1.18 µM (inactive) | 1.83 µM (inactive) | 3.13 µM (inactive) | 2.3 µM (inactive)
3 | CC(=O)Nc1ccc(C(=O)NN2C(=O)CSC2c2ccc(O)cc2)cc1 (stereo unspecified) | > 100 µM (inactive) | > 100 µM (inactive) | > 100 µM (inactive) | > 100 µM (inactive) | > 100 µM (inactive) | > 100 µM (inactive) | > 100 µM (inactive) | > 100 µM (inactive) |  | > 100 µM (inactive) | > 100 µM (inactive) |  | > 100 µM (inactive) | > 100 µM (inactive) | > 100 µM (inactive) |  | > 100 µM (inactive) | > 100 µM (inactive) | > 100 µM (inactive) | 91.6 µM (inactive)
4 | O=C1NCCCNCCCNCCCNC(=O)c2cccc1n2 |  | > 100 µM (inactive) | > 100 µM (inactive) |  |  | > 100 µM (inactive) | > 100 µM (inactive) | > 100 µM (inactive) | > 100 µM (inactive) | > 100 µM (inactive) | > 100 µM (inactive) | > 100 µM (inactive) | > 100 µM (inactive) | > 100 µM (inactive) | > 100 µM (inactive) | > 100 µM (inactive) | > 100 µM (inactive) | > 100 µM (inactive) | > 100 µM (inactive) | > 100 µM (inactive)
5 | COC(=O)C(Cc1c(C2Nc3ccccc3C2CC(NC(C)=O)C(=O)OC)[nH]c2ccccc12)NC(C)=O (stereo unspecified) |  | > 100 µM (inactive) | > 100 µM (inactive) | > 100 µM (inactive) | > 100 µM (inactive) | > 100 µM (inactive) | > 100 µM (inactive) | > 100 µM (inactive) |  | > 100 µM (inactive) | > 100 µM (inactive) | > 100 µM (inactive) | > 100 µM (inactive) | > 100 µM (inactive) | > 100 µM (inactive) | > 100 µM (inactive) | > 100 µM (inactive) |  | > 100 µM (inactive) | > 100 µM (inactive)
6 | C=CCNC(=S)N/N=C1\C(=O)N(CN2CCOCC2)c2ccc([N+](=O)[O-])cc21 | 33.3 µM (inactive) | 55.1 µM (inactive) | 3.74 µM (inactive) | 18.7 µM (inactive) | 7.52 µM (inactive) | > 100 µM (inactive) | 10.4 µM (inactive) | 7.98 µM (inactive) |  | 34.4 µM (inactive) | 56.2 µM (inactive) | 24 µM (inactive) | 6.46 µM (inactive) | > 100 µM (inactive) | 23.2 µM (inactive) | 5.19 µM (inactive) | 21.6 µM (inactive) | 12.9 µM (inactive) | 2.7 µM (inactive) | 24.3 µM (inactive)
7 | CCOC(=O)NC(=O)c1c[nH]c(=O)[nH]c1=O |  |  |  |  | > 100 µM (inactive) | > 100 µM (inactive) | > 100 µM (inactive) | > 100 µM (inactive) | > 100 µM (inactive) | > 100 µM (inactive) | > 100 µM (inactive) |  | > 100 µM (inactive) | > 100 µM (inactive) | > 100 µM (inactive) | > 100 µM (inactive) | > 100 µM (inactive) | > 100 µM (inactive) | > 100 µM (inactive) | > 100 µM (inactive)
8 | C\C(=N/N=C1/C(=C\N(C)C)C(=O)NC(=O)N1C)c1ccc(Cl)cc1 | > 100 µM (inactive) | 37.6 µM (inactive) | > 100 µM (inactive) | > 100 µM (inactive) | > 100 µM (inactive) | 68.5 µM (inactive) | 87.7 µM (inactive) | 54.6 µM (inactive) |  | > 100 µM (inactive) | 69.2 µM (inactive) | 72.1 µM (inactive) | 74.1 µM (inactive) | > 100 µM (inactive) | > 100 µM (inactive) | 76.4 µM (inactive) | > 100 µM (inactive) | > 100 µM (inactive) | 15.8 µM (inactive) | 32.6 µM (inactive)
9 | O=C1C(Cl)=C(NCCc2ccc(O)cc2)C(=O)c2c(O)ccc(O)c21 | 4.13 µM (inactive) | 4.36 µM (inactive) | 3.76 µM (inactive) | > 10 µM (inactive) |  | > 10 µM (inactive) | > 10 µM (inactive) | 9.82 µM (inactive) |  | > 10 µM (inactive) | > 10 µM (inactive) | > 10 µM (inactive) | 8.2 µM (inactive) | 3.74 µM (inactive) | 4.27 µM (inactive) | > 10 µM (inactive) | > 10 µM (inactive) | > 10 µM (inactive) | 4.34 µM (inactive) | > 10 µM (inactive)
10 | COc1cc(C(=O)Nc2c3ccccc3nc3ccccc23)cc(OC)c1OC | > 100 µM (inactive) | > 74.5 µM (inactive) | > 93.5 µM (inactive) | > 100 µM (inactive) |  | > 100 µM (inactive) | > 100 µM (inactive) | 35.6 µM (inactive) |  | > 100 µM (inactive) | > 100 µM (inactive) | > 100 µM (inactive) | > 67.1 µM (inactive) | > 34.7 µM (inactive) | > 100 µM (inactive) | > 22.1 µM (inactive) | > 95.1 µM (inactive) | > 100 µM (inactive) | 20.5 µM (inactive) | 0.885 µM (active)
11 | CN(C)c1ccc(/C=c2\sc3nnc(Cc4ccccc4)n3c2=O)cc1 |  |  |  |  | > 10 µM (inactive) | > 10 µM (inactive) | 37 µM (inactive) | > 10 µM (inactive) | > 10 µM (inactive) | > 10 µM (inactive) | > 10 µM (inactive) |  | 17.1 µM (inactive) | > 10 µM (inactive) | 62.5 µM (inactive) | > 10 µM (inactive) | > 10 µM (inactive) | > 100 µM (inactive) | > 10 µM (inactive) | > 10 µM (inactive)
12 | CCC1OC2C(CC=C(C)C)=C3OC(C)(O)C(C)(CC)C(O)C3=C3OC(=O)C=C1C32 (stereo unspecified) | 31.3 µM (inactive) | 67 µM (inactive) | 42.8 µM (inactive) | 50.5 µM (inactive) | > 100 µM (inactive) | 55.1 µM (inactive) | 37.6 µM (inactive) | 45.8 µM (inactive) |  | 29.9 µM (inactive) | 74.8 µM (inactive) | 68.5 µM (inactive) | 26.6 µM (inactive) | 26.7 µM (inactive) |  | > 100 µM (inactive) | 54.6 µM (inactive) | 27 µM (inactive) | 33.6 µM (inactive) | 
13 | CC(C)N(C(=O)c1cccc(C(=O)N(C(C)C)C(C)C)c1)C(C)C |  |  |  |  | > 100 µM (inactive) | > 100 µM (inactive) | > 100 µM (inactive) | > 100 µM (inactive) | 20.1 µM (inactive) | > 100 µM (inactive) | > 100 µM (inactive) |  | > 100 µM (inactive) | > 100 µM (inactive) | > 100 µM (inactive) | > 100 µM (inactive) | > 100 µM (inactive) | > 100 µM (inactive) | > 100 µM (inactive) | > 100 µM (inactive)
14 | CC(C)Cc1ccc(C(C)/C=C2\CCC(CN3CCCC3)C2=O)cc1 (stereo unspecified) |  |  |  |  | 21.6 µM (inactive) | 18.1 µM (inactive) | 18.3 µM (inactive) | 16.9 µM (inactive) | 1.76 µM (inactive) | 4.5 µM (inactive) | 21.8 µM (inactive) |  | 4.13 µM (inactive) | 15.7 µM (inactive) | 8.09 µM (inactive) | 13.6 µM (inactive) | 12.4 µM (inactive) | 7.08 µM (inactive) | 2.22 µM (inactive) | 14.1 µM (inactive)
15 | CCN1C(=O)/C(=C/Nc2ccccc2)S/C1=N/Nc1nc(-c2ccc(O)c(O)c2)cs1 | 4 µM (inactive) | 1.71 µM (inactive) | 3.61 µM (inactive) | 5.64 µM (inactive) |  | 51.5 µM (inactive) | 33.7 µM (inactive) | 4.46 µM (inactive) | 2.7 µM (inactive) | 35.5 µM (inactive) | > 100 µM (inactive) | 33.9 µM (inactive) | 8.63 µM (inactive) | 6.4 µM (inactive) | 29.8 µM (inactive) | 31.8 µM (inactive) | 4.66 µM (inactive) |  | 4.53 µM (inactive) | 3.05 µM (inactive)
16 | CN(CC#N)C1CCCC[C@H]1O (stereo partly specified) |  |  |  |  | > 100 µM (inactive) | > 100 µM (inactive) | > 100 µM (inactive) | > 100 µM (inactive) | 46.6 µM (inactive) | > 100 µM (inactive) | > 100 µM (inactive) |  | > 100 µM (inactive) | > 100 µM (inactive) | > 100 µM (inactive) | > 100 µM (inactive) | > 100 µM (inactive) | > 100 µM (inactive) | > 100 µM (inactive) | > 100 µM (inactive)
